One block for each compound: values may come before it.
Key:
Assay type in all cases: cell-based, human
sphingosine kinase = test: Sphingosine kinase activity in cytosolic fractions of treated HUVECs
Experimental: (§1) HUVECs were labelled with [^3H]sphingomyelin was measured at the desired time point of TNFα treatment. The unlabelled cells were treated with HDL and/or TNFα as indicated, cells were lysed to measure ceramide levels and sphingosine kinase activity, respectively. The cells were permeabilized to measure the production of Sph-1-P in vivo.
(§2) To measure sphingomyelin, the HUVECs were labeled with [^3H]serine (5 μCi/ml) for 48 h and preincubated with or without HDL for another 6 h. The cells were then washed three times and incubated for additional 2 h in the presence or absence of HDL. […] Sphingomyelin spots were visualized by fluorography, quantitated by scintillation spectrometry, and normalized by radioactivity recovered in total cellular lipids. […] To measure ceramide levels, cellular ceramide was extracted and quantified with the diacylglycerol kinase reaction (Kolesnick, 1991; Hannun & Bell, 1993). Sphingosine kinase activity was measured in vitro as previously described with some modification (Mattie et al., 1994; Ghosh et al., 1994; Choi et al., 1996). […] Sphingosine kinase activity was measured by incubating the supernatant with […] sphingosine-BSA complex and [γ^32P]ATP (1 mM, 5 μCi/ml) for 15 min at 37° C. […] Radioactivity of the spot corresponding to Sph-1-P was quantified using Phosphoimager system. […]

sphingomyelin = test: Sphingomyelin hydrolysis in labelled HUVECs; conditions: within 30 min of TNFα stimulation
Experimental: as §1, §2

ceramide = test: Cellular ceramide levels in HUVECs, diacylglycerol kinase reaction; conditions: peak at 30 min after TNFα treatment
Experimental: as §1, §2

ERK = ERK activity in HUVECs, immunoprecipitation and MBP substrate; conditions: for stimulation of ERK activities: 30 min treatment
Experimental: After the cells were treated with an agent for 30 min, ERK activities were assayed with […] basic protein (MBP) as substrate after immunoprecipitation with antibodies against p42/p44^MAPK (Berra et al. 1995; Li et al., 1996; Lee et al., 1997). The kinase reaction products were separated on 10% SDS-polyacrylamide gels. Bar graph depicting ERK activities were quantified by Phosphoimager. NF-κB binding activity was measured by electrophoretic mobility shift assay after 30 min treatment as indicated.

VCAM-1 = test: Cell-surface expression of VCAM-1 by HUVECs, flow cytometry
Experimental: (§3) Confluent monolayers of HUVECs were preincubated with or without HDL that was isolated as the fraction of density 1.13˜1.21 g/ml from human plasma at a concentration of 1 mg/ml of apoA-1. After 16-h preincubation, the cells were treated with TNFα (100 U/ml). Following 4-h treatment of TNFα, the cell-surface expression of VCAM-1 and E-selectin was measured by using flow cytometry.
(§4) HUVECs were treated with an increasing concentration of C2-ceramide with or without TNF α(100 U/ml), or an increasing concentration of Sph-1-P for 4 h. The cell-surface expression of VCAM-1 or E-selectin was measured by flow cytometry. Effect of sphingosine kinase inhibitor (DMS) on the expression of VCAM-1 and E-selectin. The cells were treated with a vehicle (Nil), DMS (5 μM), Sph-1-P (5 μM), C2-ceramide (10 μM) or TNFα (100 U/ml) for 4 h, then measure VCAM-1 or E-selectin expression. Effect of agents on E-selectin mRNA levels and the comparison between the effect of HDL and DMS. After the indicated treatment for 4 h, E-selectin mRNA levels were measured by Northern blotting assay. Results shown in (D) are representative of three similar experiments.

E-selectin = test: Cell-surface expression of E-selectin by HUVECs, flow cytometry
Experimental: as §3, §4

E-selectin mRNA = E-selectin mRNA levels in HUVECs, Northern blotting; conditions: 4 h treatment
Experimental: as §4
Total RNA was prepared from HUVECs that was treated with the indicated agents for 4 h. Equal aliquots of total RNA (12 μg) were electrophoresed in a 1% formaldehyde gel and transferred to nylon membrane. The blots were hybridized with α^=P-labeled E-selection cDNA probe. The mRNA levels of E-selectin were quantified by Phosphoimager and normalised to radiolabeled GAPDH probe.

NF-κB = NF-κB binding activity in HUVEC nuclear extracts, electrophoretic mobility shift assay; conditions: HUVECs, 30 min treatment
Experimental: After the cells were treated with an agent for 30 min, ERK activities were assayed with mycline basic protein (MBP) as substrate after immunoprecipitation with antibodies against p42/p44^MAPK (Berra et al. 1995; Li et al., 1996; Lee et al., 1997). The kinase reaction products were separated on 10% SDS-polyacrylamide gels. Bar graph depicting ERK activities were quantified by Phosphoimager. NF-κB binding activity was measured by electrophoretic mobility shift assay after 30 min treatment as indicated. The specific NF-κB binding complexes were identified by the super-shift gel assay with anti-p50 and anti-p65 antibodies and by competition analyses with the addition of a 50-fold molar excess of unlabelled NF-κB oligonucleotides.
To measure the NF-κB binding activity, electrophoretic mobility-shift assays were performed. Nuclear extracts were prepared from HUVECs treated for 30 min with vehicle or the indicated agents. The double-stranded oligonucleotides used as a probe in these experiements included 5′-[…]-3′ (SEQ ID NO: 1) which contains a consensus NF-κB binding site in E-selection promoter that is underlined. Gel mobility shift of a consensus NF-κB oligonucleotide was performed by incubating ^32P-labelled NF-κB probe with […] of nuclear proteins. The Sph-1-P induced formation of NF-κB specific complexes were similar us that induced by TNFα. […]

Sph-1-P formation = Sph-1-P formation in permeabilized HUVECs; conditions: endothelial cells; same concentration of DMS (5 μM)
Experimental: as §1, §2

[1] = HUVECs, TNFα 100 U/ml, 4 h, flow cytometry
[2] = at 51 μM, compared with 100 U/ml TNF-α

increase of cellular ceramide levels (ceramide): approximately 2 fold
Compound: TNFα
cytosolic sphingosine kinase activity, maximum, % of basal (sphingosine kinase; HUVECs, within 5 min, p<0.01): 165±13% | cellular sphingomyelin content, % of control (sphingomyelin): 40% | stimulation of ERK activities (ERK): approximately equipotent

Compound: CCCCCCCCCCCCC/C=C/[C@@H](O)[C@H](CO)NC(C)=O [C2-ceramide]
inhibition of TNFα-induced expression of VCAM-1 (VCAM-1; [1]): > 60% | inhibition of TNFα-induced expression of E-selectin (E-selectin; [1]): > 60% | stimulation of ERK activities (ERK): did not

induction of nuclear NF-κB accumulation (NF-κB): significant nuclear NF-κB accumulation
Compound: CCCCCCCCCCCCC/C=C/[C@@H](O)[C@@H](N)COP(=O)(O)O [Sph-1-P, sphingosine-1-phosphate]
induction of VCAM-1, level reached (VCAM-1; [2]): approximately equivalent to 100 U/ml TNF-α | induction of E-selectin, level reached (E-selectin; [2]): approximately equivalent to 100 U/ml TNF-α | induction of E-selectin mRNA (E-selectin mRNA): induction of E-selectin mRNA | stimulation of ERK activities (ERK): approximately equipotent

Compound: N,N-dimethylsphingosine [DMS]
effect on Sph-1-P induced adhesion protein expression (VCAM-1) (VCAM-1; HUVECs, Sph-1-P 5 μM, 4 h): did not prevent | effect on Sph-1-P induced adhesion protein expression (E-selectin) (E-selectin; HUVECs, Sph-1-P 5 μM, 4 h): did not prevent | inhibition of sphingosine kinase activity induced either by TNF-α or PMA (sphingosine kinase; endothelial cells, same concentration of DMS (5 μM)): > 90% | inhibition of Sph-1-P formation induced either by TNF-α or PMA (Sph-1-P formation): > 90% | inhibition of TNFα-activated ERK (ERK; 30 min, p<0.02): 50% | inhibition of Sph-1-P induced activation of NF-κB (NF-κB): did not inhibit
